Legend:
Type in all cases: cell-based, human
MCF-7 cells = assay: mechano-NPS mechanical phenotyping of Latrunculin-treated MCF-7 cells; details: for cellular deformation in the transverse direction (δdeform) compared to control: one hour at 37° C.; for cellular deformation in the transverse direction (δdeform) compared to control / wCDI (whole cell deformability index) compared to untreated control cells: strain εavg˜0.3; for treated cells that instantaneously recover from deformation: ΔTr˜0 ms, untreated 38.3%
Description: (§1) Platform design, including geometry and sizing, may be configured and adapted to target indications, such as cell type and size range. In this example, the platform comprises of a 30 μm-high microfluidic channel embedded in a polydimethylsiloxane (PDMS) mold bonded to a glass substrate with pre-defined platinum (Pt) electrodes and gold (Au) contact pads (FIG. 1a). The central part of the channel, which we refer to as the “contraction channel”, is long (2055 μm) and narrow (10 or 12 μm-wide) and flanked on either side by a series of nodes and pores that are 85 μm and 25 μm wide, respectively (FIG. 1a, inset). The length of the contraction channel was chosen to provide sufficient time (˜30 ms) over which a cell experiences constant applied strain. The node and pore dimensions were chosen for sufficient signal-to noise ratios. Given the flexibility and ease of device design and fabrication, different contraction channel lengths and node and pore dimensions could be employed. Filters that are 25 μm in width (the width chosen based on the size range of cells measured in these studies, ˜15-20 μm in diameter) are included at the entrance of the microfluidic channel in order to remove cellular clusters that may otherwise clog the device. Applying a constant DC voltage (1 V) across the channel, we employ a four-terminal measurement technique^37-40 to measure the current pulses caused by cells transiting across the microfluidic channel when a non-pulsatile pressure of ˜21 kPa (determined by a commercial pressure gauge, SSI Technologies) is utilized (FIG. 1b and FIG. 2). After low-pass filtering all current versus time data, we employ custom-written software to extract both the magnitude and duration of each current sub-pulse (ΔInp, ΔIc, ΔTcont, and ΔTr in FIG. 1b; FIG. 3).
(§2) We disrupted actin polymerization with Latrunculin A and B (LatA and LatB, Enzo Life Sciences)^50. Prior to deformability measurements, MCF-7 and MCF-10A cells were incubated with 2.5 or 5 μg/mL LatA or LatB in each cell's respective growth medium for one hour at 37° C. and 5% CO2^29, 51, 52. Cells were then released from culture flasks with 0.25% trypsin/EDTA, rinsed once with PBS, centrifuged at […], and re-suspended in PBS at a concentration of ˜100,000 cells/mL. […] They were then permeabilized with 0.1% Triton-X 100 (Sigma-Aldrich) in PBS for 5 min. Cell nuclei and F-actin were then counter-stained with 4′,6-diamidino-2-phenylindole (DAPI, Sigma-Aldrich, 10236276001) and rhodamine phalloidin (Thermo Fisher Scientific, R415), respectively, per manufacturer's protocol, and then imaged with a Zeiss LSM710 confocal microscope.
(§3) To determine De, we measure polystyrene microspheres of known size with the microfluidic channel. Using the values of ΔI/I arising from the microspheres, along with the known values of L and d (the size of the microspheres in this instance), we can numerically solve for De in Equation (5). Once De is known, we can subsequently determine Dcell of a screened cell by numerically solving for d in Equation (5) using the obtained values of ΔInp/I. We can also determine the volume of the deformed cell, Vdeform, by the relationship^39, 57, 58, ΔIc/I˜Vdeform/Vcontraction, where Vcontraction is the volume of the contraction channel. To calculate Ldeform, we assume the cell undergoes an isometric deformation in the direction of both the channel's longitudinal axis and channel height, resulting in an oblate-spheroid shape. From the relationship between the volume and major radius of the oblate spheroid, Vdeform=πwcLdeform^2/6 where wc is the contraction-channel width, we can determine Ldeform from ΔIc/I. We quantify the transverse deformation of the cell, δdeform=Ldeform/Dcell, as it transits the contraction channel.
(§4) As a cell traverses through each section of the channel, the duration of the resulting sub-pulse produced by a cell corresponds to the cell's transit time (ΔT) through that part of the channel. […]

MCF-10A cells = assay: mechano-NPS mechanical phenotyping of Latrunculin-treated MCF-10A cells; details: for cellular deformation in the transverse direction (δdeform) compared to control: one hour at 37° C.; for cellular deformation in the transverse direction (δdeform) compared to control / wCDI (whole cell deformability index) compared to untreated control cells: strain εavg˜0.3; for treated cells that do not recover within the 40 ms time window (prolonged recovery): ΔTr>40 ms, untreated 9.7%
Description: as §1, §2, §3, §4

F-actin filaments = assay: F-actin staining (rhodamine phalloidin) and confocal microscopy of treated cells; details: MCF-7 and MCF-10A cells, after one hour incubation; more so with Lat-A than with Lat-B
Procedure: as §2

Row | SMILES | cellular deformation in the transverse direction (δdeform) compared to control (MCF-7 cells; 2.5 or 5 μg/mL) | wCDI (whole cell deformability index) compared to untreated control cells (MCF-7 cells) | treated cells that instantaneously recover from deformation (MCF-7 cells) | cellular deformation in the transverse direction (δdeform) compared to control (MCF-10A cells; 2.5 or 5 μg/mL) | wCDI (whole cell deformability index) compared to untreated control cells (MCF-10A cells) | treated cells that do not recover within the 40 ms time window (prolonged recovery) (MCF-10A cells) | F-actin filaments by staining and confocal microscopy (F-actin filaments) | change in wCDI as a function of treatment concentration (MCF-7 cells; 2.5 or 5 μg/mL) | change in wCDI as a function of treatment concentration (MCF-10A cells; 2.5 or 5 μg/mL)
1 | C/C1=C/C(=O)O[C@@H]2C[C@@H](CC[C@H](C)/C=C\CC1)O[C@@](O)([C@@H]1CSC(=O)N1)C2 [LatB, Latrunculin B] | significantly reduced | increased | 24.2% | significantly reduced | no detectable change | 41.4% | inhibited | – | –
2 | C/C1=C/C(=O)O[C@@H]2C[C@@H](CC[C@H](C)/C=C\C=C\CC1)O[C@@](O)([C@@H]1CSC(=O)N1)C2 [LatA, Latrunculin A] | significantly reduced | increased | 8.1% | significantly reduced | increased | 66.7% | inhibited | increased with concentration | increased with concentration
